Data set [1] deals with HCV replicon RNA (GenBank Accession No. AJ242654). Nature of the data set: HCV Replicon Assay (replicon RNA reduction and/or Fluc reporter signal). Type of data set: cell-based, Hepatitis C virus. As to conditions: Hepatitis C virus, 72 h, replicon-containing cells cultured with test compound for up to 3 days. In a few lines:
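Bicistronic replicon-containing cells cultured with compound for up to 3 days, with interferon as positive control. Inhibition quantified by replicon RNA reduction and/or Fluc reporter signal; IC50 values generally derived from replicon RNA reduction.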

In the case of `Cc1cc2c(C#N)c(-c3ccc(S(=O)(=O)N[C@@H](C)C(F)(F)F)cn3)n(C3CCC3)c2cn1` [Cpd 165, 6-(3-cyano-1-cyclobutyl-5-methyl-1H-pyrrolo[2,3-c]pyridin-2-yl)-N-[(2S)-1,1,1-trifluoropropan-2-yl]pyridine-3-sulfonamide], the melting point is 185 to 188 °C. The compound further yielded an IC50 in data set [1] of 500 to 2000 nM.

In turn, `Cc1cc2c(C#N)c(-c3ccc(S(=O)(=O)N[C@H](C)C(F)(F)F)cn3)n(C3CCC3)c2cn1` [Cpd 166, 6-(3-cyano-1-cyclobutyl-5-methyl-1H-pyrrolo[2,3-c]pyridin-2-yl)-N-[(2R)-1,1,1-trifluoropropan-2-yl]pyridine-3-sulfonamide] came in with a melting point of 195 to 198 °C. In data set [1], the IC50 was less than 500 nM.

The compound `Cc1cc2c(C#N)c(-c3ccc(S(=O)(=O)N[C@@H](C)C(F)(F)F)cc3)n(C3CCC3)c2cn1` [Cpd 167, 4-(3-cyano-1-cyclobutyl-5-methyl-1H-pyrrolo[2,3-c]pyridin-2-yl)-N-[(2S)-1,1,1-trifluoropropan-2-yl]benzenesulfonamide] registered a melting point of 188 to 191 °C. This compound also registered an IC50 in data set [1] of less than 500 nM.

For the compound `Cc1cc2c(C#N)c(-c3ccc(S(=O)(=O)NC4(C)CC4)cn3)n(C3CCC3)c2cn1` [Cpd 168, 6-(3-cyano-1-cyclobutyl-5-methyl-1H-pyrrolo[2,3-c]pyridine-2-yl)-N-(1-methylcyclopropyl)pyridine-3-sulfonamide], the melting point lay in the range of 185 to 190 °C. Further, the IC50 in data set [1] was less than 500 nM.

With `C[C@H](NS(=O)(=O)c1ccc(-c2c(C#N)c3cc(F)cnc3n2C2CCC2)nc1)C(F)(F)F` [Cpd 169, 6-(3-cyano-1-cyclobutyl-5-fluoro-1H-pyrrolo[2,3-b]pyridin-2-yl)-N-[(2S)-1,1,1-trifluoropropan-2-yl]pyridine-3-sulfonamide], the melting point was in the range of 172 to 174 °C. In data set [1], this compound showed an IC50 of less than 500 nM.

With `Cc1cnc2c(C#N)c(-c3ccc(S(=O)(=O)N[C@@H](C)C(F)(F)F)cn3)n(C3CCCC3)c2c1` [Cpd 170, 6-(3-cyano-1-cyclopentyl-6-methyl-1H-pyrrolo[3,2-b]pyridin-2-yl)-N-[(2S)-1,1,1-trifluoropropan-2-yl]pyridine-3-sulfonamide], the melting point is 210 to 212 °C. Besides, the IC50 in data set [1] is less than 500 nM.

`Cc1cnc2c(C#N)c(-c3ccc(S(=O)(=O)N[C@H](C)C(F)(F)F)cn3)n(C3CCCC3)c2c1` [Cpd 171, 6-(3-cyano-1-cyclopentyl-6-methyl-1H-pyrrolo[3,2-b]pyridin-2-yl)-N-[(2R)-1,1,1-trifluoropropan-2-yl]pyridine-3-sulfonamide] showed a melting point of 215 to 217 °C. Besides, the IC50 in data set [1] was less than 500 nM.

As for `Cc1cnc2c(C#N)c(-c3ccc(S(=O)(=O)NC4(C(F)(F)F)CC4)cn3)n(C3CCCC3)c2c1` [Cpd 172, 6-(3-cyano-1-cyclopentyl-6-methyl-1H-pyrrolo[3,2-b]pyridin-2-yl)-N-[1-(trifluoromethyl)cyclopropyl]pyridine-3-sulfonamide], the melting point lay within 249 to 251 °C. The compound also came in with an IC50 in data set [1] of less than 500 nM.

`Cc1cnc2c(C#N)c(-c3ccc(S(=O)(=O)NC(C)(C)C(F)(F)F)cn3)n(C3CCCC3)c2c1` [Cpd 173, 6-(3-cyano-1-cyclopentyl-6-methyl-1H-pyrrolo[3,2-b]pyridin-2-yl)-N-(1,1,1-trifluoro-2-methylpropan-2-yl)pyridine-3-sulfonamide] yielded a melting point of 265 to 267 °C. In data set [1], this compound displayed an IC50 of less than 500 nM.

As for `Cc1cnc2c(C#N)c(-c3ccc(S(=O)(=O)NC4(C)CC4)cn3)n(C3CCCC3)c2c1` [Cpd 174, 6-(3-cyano-1-cyclopentyl-6-methyl-1H-pyrrolo[3,2-b]pyridin-2-yl)-N-(1-methylcyclopropyl)pyridine-3-sulfonamide], the melting point lay in the range of 215 to 217 °C. The IC50 in data set [1] was less than 500 nM.

These data come from patent US9593108B2, “Compounds and methods for antiviral treatment” (PTC Therapeutics, Inc., priority 2009, dated 2017).
